Source: patent publication US10710992B2, “Substituted pyridinones as bromodomain inhibitors” (Zenith Epigenetics Ltd., priority 2014, dated 2020)

Tests used:
[1] = target: T1, Brd4 bromodomain 1 (BRD4(1)) (Homo sapiens, UniProt O60885); assay: Inhibition of tetra-acetylated histone H4 binding to BET bromodomain (HTRF/FRET); settings: His-tagged bromodomain 200 nM, tetra-acetylated histone H4 peptide, 2 h room temperature
T1 construct: made in house; host or cells: E. coli BL21(DE3)
Experimental: Proteins were cloned and overexpressed with a N-terminal 6× His tag, then purified by nickel affinity followed by size exclusion chromatography. Briefly, E. coli BL21(DE3) cells were transformed with a recombinant expression vector encoding N-terminally Nickel affinity tagged bromodomains from Brd2, Brd3, Brd4. Cell cultures were incubated at 37° C. with shaking to the appropriate density and induced overnight with IPTG. The supernatant of lysed cells was loaded onto Ni-IDA column for purification. Eluted protein was pooled, concentrated and further purified by size exclusion chromatography. Fractions representing monomeric protein were pooled, concentrated, aliquoted, and frozen at −80° C. for use in subsequent experiments.
Binding of tetra-acetylated histone H4 and BET bromodomains was confirmed by a Homogenous Time Resolved Fluorescence Resonance Energy Transfer (HTRF®) method. N-terminally His-tagged bromodomains (200 nM) and biotinylated tetra-acetylated historic H4 peptide (25-50 nM, Millipore) were incubated in the presence of Europium Cryptate-labeled streptavidin (Cisbio Cat. #610SAKLB) and XL665-labeled monoclonal anti-His antibody (Cisbio Cat. #61HISXLB) in a white 96 well microtiter plate (Greiner). For inhibition assays, serially diluted test compound was added to these reactions in a 0.2% final concentration of DMSO. Duplicate wells were used for each concentration tested. Final buffer concentrations were 30 mM HEPES pH 7.4, 30 mM NaCl, 0.3 mM CHAPS, 20 mM phosphate pH 7.0, 320 mM KF, 0.08% BSA. After a 2 h incubation at room temperature, fluorescence was measured at 665 and 620 nm with a SynergyH4 plate reader (Biotek). The binding inhibitory activity was shown by a decrease in 665 nm relative to […] fluorescence. IC50 values were determined from a dose response curve.

[2] = tested on: c-myc in Human AML MV4-11 cells; assay: Inhibition of cMYC expression in cancer cell lines (mRNA, real-time PCR); assay type: cell-based; settings: 3 h, cMYC mRNA normalized to Cyclophilin; for IC50: Homo sapiens
Experimental: MV4-11 cells (CRL-9591) were plated at a density of 2.5×10^4 cells per well in 96 well U-bottom plates and treated with increasing concentrations of test compound or DMSO (0.1%) in IMDM media containing 10% FBS and penicillin/streptomycin, and incubated for 3 h at 37° C. Triplicate wells were used for each concentration. Cells were pelleted by centrifugation and harvested using the mRNA Catcher PLUS kit according to manufacturer's instructions. The eluted mRNA isolated was then used in a one-step quantitative real-time PCR reaction, using components of the RNA UltraSense™ One-Step Kit (Life Technologies) together with Applied Biosystems TaqMan® primer-probes for cMYC and Cyclophilin. Real-time PCR plates were run on a ViiA™ 7 real time PCR machine (Applied Biosystems), data was analyzed, normalizing the Ct values for cMYC to an internal control, prior to determining the fold expression of each sample, relative to the control.

Human AML MV-4-11 cells = assay: Inhibition of cell proliferation in cancer cell lines (CellTiter Aqueous One); assay type: cell-based; settings: MV4-11 cells, 72 h; for IC50: Homo sapiens
Experimental: MV4-11 cells (CRL-9591) were plated at a density of 5×10^4 cells per well in 96 well flat bottom plates and treated with increasing concentrations of test compound or DMSO (0.1%) in IMDM media containing 10% FBS and penicillin/streptomycin. Triplicate wells were used for each concentration and a well containing only media was used as a control. Plates were incubated at 37° C., 5% CO2 for 72 h before adding 20 μL of the CellTiter Aqueous One Solution (Promega) to each well and incubated at 37° C., 5% CO2 for an additional 3-4 h. The absorbance was read at 490 nm in a spectrophotometer and the percentage of cell titer relative to DMSO-treated cells was calculated after correcting for background by subtracting the blank well's signal. IC50 values were calculated using the GraphPad Prism software.

hIL-6 mRNA = assay: Inhibition of hIL-6 mRNA transcription in LPS-stimulated U937 cells; assay type: cell-based; settings: Homo sapiens, U-937; PMA-differentiated U937 cells, 1 h pretreatment, LPS 1 ug/mL, 3 h; read-out: IL-6 activity
Experimental: Human leukemic monocyte lymphoma U937 cells (CRL-1593.2) were plated at a density of 3.2×10^4 cells per well in a 96-well plate in 100 μL RPMI-1640 containing 10% FBS and penicillin/streptomycin, and differentiated into macrophages for 3 days in 60 ng/mL PMA ([…]) at 37° C. in 5% CO2 prior to the addition of compound. The cells were pretreated for 1 h with increasing concentrations of test compound in 0.1% DMSO prior to stimulation with 1 ug/mL lipopolysaccharide from Escherichia coli. Triplicate wells were used for each concentration. The cells were incubated at 37° C., 5% CO2 for 3 h before the cells were harvested. At time of harvest, media was removed and cells were rinsed in 200 μL PBS. Cells were harvested using the mRNA Catcher PLUS kit according to manufacturer's instructions. The eluted mRNA was then used in a one-step quantitative real-time PCR reaction using components of the RNA UltraSense™ One-Step Kit (Life Technologies) together with Applied Biosystems TaqMan® primer-probes for hIL-6 and Cyclophilin. Real-time PCR plates were run on a ViiA™ 7 real time PCR machine (Applied Biosystems), data was analyzed, normalizing the Ct values for hIL-6 to an internal control, prior to determining the fold expression of each sample, relative to the control.

hIL-17 mRNA = assay: Inhibition of hIL-17 mRNA transcription in OKT3-stimulated peripheral blood mononuclear cells; assay type: cell-based; settings: human PBMC, 1 h pretreatment, OKT3 antibody, 6 h; read-out: IL-17 activity
Experimental: Human peripheral blood mononuclear cells were plated (2.0×10^5 cells per well) in a 96-well plate in 45 μL. OpTimizer T Cell expansion media (Life Technologies) containing 20 ng/ml IL-2 and penicillin/streptomycin. The cells were treated with increasing concentrations of the test compound or DMSO (0.1%), and incubated at 37° C., 5% CO2 for 1 h before addition of 10× stock OKT3 antibody at 10 ug/ml in media. Triplicate wells were used for each concentration. Cells were incubated at 37° C., 5% CO2 for 6 h before the cells were harvested. At time of harvest, cells were pelleted by centrifugation at 800 rpm for 5 min. Cells were harvested using the mRNA Catcher PLUS kit according to manufacturer's instructions. The eluted mRNA was then used in a one-step quantitative real-time PCR reaction, using components of the RNA UltraSense™ One-Step Kit (Life Technologies) together with Applied Biosystems TaqMan® primer-probes for hIL-17 and Cyclophilin. Real-time PCR plates were run on a ViiA™ 7 real time PCR machine (Applied Biosystems), data was analyzed, normalizing the Ct values for hIL-17 to an internal control, prior to determining the fold induction of each unknown sample, relative to the control.

Compound | IC50 [1] [nM] | IC50 [2] [nM] | IC50 (Human AML MV-4-11 cells) [nM] | IC50 (hIL-6 mRNA) [nM] | IC50 (hIL-17 mRNA) [nM] | c-myc activity [2] | Cell Proliferation activity (Human AML MV-4-11 cells)
Cc1noc(C)c1-c1c[nH]c(=O)c(NCc2ccccc2)c1 [Example 4, 3-(benzylamino)-5-(3,5-dimethylisoxazol-4-yl)pyridin-2(1H)-one] | ≤ 300 | 300 to 3000 | 300 to 3000 | 300 to 3000 | 300 to 3000 |  | 
Cc1noc(C)c1-c1c[nH]c(=O)c(OCc2ccccc2)c1 [Example 14, 3-(benzyloxy)-5-(3,5-dimethylisoxazol-4-yl)pyridin-2(1H)-one] | 300 to 3000 | 3000 to 30000 | 3000 to 30000 | 300 to 3000 |  |  | 
Cc1noc(C)c1-c1c[nH]c(=O)c(NCc2ccccn2)c1 [Example 17, 5-(3,5-dimethylisoxazol-4-yl)-3-((pyridin-2-ylmethyl)amino)pyridin-2(1H)-one] | ≤ 300 | 300 to 3000 | 3000 to 30000 | 300 to 3000 | 300 to 3000 |  | 
Cc1noc(C)c1-c1c[nH]c(=O)c(NC(C)c2ccccn2)c1 (stereo not shown) [Example 20, 5-(3,5-dimethylisoxazol-4-yl)-3-((1-(pyridin-2-yl)ethyl)amino)pyridin-2(1H)-one] | ≤ 300 | 300 to 3000 | 300 to 3000 | 300 to 3000 | 300 to 3000 |  | 
Cc1noc(C)c1-c1c[nH]c(=O)c(NCc2ccc(F)cc2)c1 [Example 21, 5-(3,5-dimethylisoxazol-4-yl)-3-((4-fluorobenzyl)amino)pyridin-2(1H)-one] | ≤ 300 | 300 to 3000 | 300 to 3000 | 300 to 3000 |  |  | 
Cc1noc(C)c1-c1c[nH]c(=O)c(NCc2ccc(I)cc2)c1 [Example 24, 5-(3,5-dimethylisoxazol-4-yl)-3-((4-iodobenzyl)amino)pyridin-2(1H)-one] | ≤ 300 |  |  | 3000 to 30000 |  | Not Active | Not Active
Cc1noc(C)c1-c1c[nH]c(=O)c(OCc2ccc(F)cc2)c1 [Example 27, 5-(3,5-dimethylisoxazol-4-yl)-3-((4-fluorobenzyl)oxy)pyridin-2(1H)-one] | 300 to 3000 | 300 to 3000 | 3000 to 30000 | 300 to 3000 |  |  | 
Cc1noc(C)c1-c1c[nH]c(=O)c(NCc2nccs2)c1 [Example 30, 5-(3,5-dimethylisoxazol-4-yl)-3-((thiazol-2-ylmethyl)amino)pyridin-2(1H)-one] | ≤ 300 | 3000 to 30000 | 300 to 3000 | 300 to 3000 |  |  | 
Cc1noc(C)c1-c1c[nH]c(=O)c(NCc2ccc3ccccc3c2)c1 [Example 33, 5-(3,5-dimethylisoxazol-4-yl)-3-((naphthalen-2-ylmethyl)amino)pyridin-2(1H)-one] | 300 to 3000 | 3000 to 30000 | 3000 to 30000 | 300 to 3000 |  |  | 
Cc1noc(C)c1Nc1cc(-c2c(C)noc2C)c[nH]c1=O [Example 34, 5-(3,5-dimethylisoxazol-4-yl)-3-((3,5-dimethylisoxazol-4-yl)amino)pyridin-2(1H)-one] | ≤ 300 | 300 to 3000 | 300 to 3000 | 300 to 3000 |  |  | 
Cc1noc(C)c1-c1c[nH]c(=O)c(NCc2ccc3ccccc3n2)c1 [Example 35, 5-(3,5-dimethylisoxazol-4-yl)-3-((quinolin-2-ylmethyl)amino)pyridin-2(1H)-one] | ≤ 300 | 3000 to 30000 | 300 to 3000 | 300 to 3000 |  |  | 
Cc1noc(C)c1-c1c[nH]c(=O)c(NCc2ccc(C#N)s2)c1 [Example 36, 5-(((5-(3,5-dimethylisoxazol-4-yl)-2-oxo-1,2-dihydropyridin-3-yl)amino)methyl)thiophene-2-carbonitrile] | ≤ 300 | 3000 to 30000 | 3000 to 30000 | 300 to 3000 |  |  | 
Cc1noc(C)c1-c1c[nH]c(=O)c(NCc2ncccc2Cl)c1 [Example 37, 3-(((3-chloropyridin-2-yl)methyl)amino)-5-(3,5-dimethylisoxazol-4-yl)pyridin-2(1H)-one] | 300 to 3000 |  |  | 300 to 3000 |  | Not Active | Not Active
Cc1noc(C)c1-c1c[nH]c(=O)c(NCc2cccc3ncccc23)c1 [Example 39, 5-(3,5-dimethylisoxazol-4-yl)-3-((quinolin-5-ylmethyl)amino)pyridin-2(1H)-one] | ≤ 300 | 300 to 3000 | 300 to 3000 | ≤ 300 |  |  | 
Cc1noc(C)c1-c1c[nH]c(=O)c(NCc2nc3ccccc3s2)c1 [Example 40, 3-((benzo[d]thiazol-2-ylmethyl)amino)-5-(3,5-dimethylisoxazol-4-yl)pyridin-2(1H)-one] | 300 to 3000 | 300 to 3000 | 3000 to 30000 | 300 to 3000 |  |  | 
Cc1ncccc1Oc1cc(-c2c(C)noc2C)cnc1O [Example 43, 5-(3,5-dimethylisoxazol-4-yl)-3-((2-methylpyridin-3-yl)oxy)pyridin-2-ol] | 300 to 3000 |  |  | 3000 to 30000 |  | Not Active | Not Active
